{"source": "patent US20240383856A1", "about": "(Zedira GmbH, priority 2021, published 2024)", "key": {"[1]": {"test": "Single-dose oral pharmacokinetic profile in mice", "assay_type": "in vivo", "details": "male C57BL/6 mice, single oral dose 200 mg/kg", "method": "Presumed from promising Papp values (permeability coefficients, see below), the 5 inventors had proven the oral bioavailability of the inhibitors of the present application by the representative compounds II-3, II-15, and II-28. For this selected set of representative compounds, pharmacokinetic profiles were determined in male C57BL/6 mice (N=3, each). Briefly, the compounds were administered as single-dose soluble, oral formulation [20 mg/ml in PBS/(2—Hydroxypropyl)-β-cyclodextrin formulation] at 200 mg/kg. Plasma samples were taken at (0, 0.25, 0.5, 1, 2, 4, and 6 hours) and analyzed by LC-MS to determine the concentration of the representative compounds."}, "[2]": {"test": "logD by shake flask method (octanol / PBS pH 7.4, HPLC)", "assay_type": "physicochemical", "details": "octanol / PBS pH 7.4, shake flask", "outline": "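LogD obtained by HPLC measurement of how the compound distributes between PBS (pH 7.4) and octanol in a shake-flask experiment.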"}}, "note": "Read-outs that look alike come from different tables or passages of the source."}
{"smiles": "CNC(=O)C(=O)CC[C@H](NC(=O)c1oc2ccccc2c1C)C(=O)Nc1cccn(CC(=O)NC2C3CC4CC(C3)CC2C4)c1=O", "note": "(stereo partly drawn) [II-3, (S)-N1-(1-(2-(2-adamantylamino)-2-oxoethyl)-2-oxo-1,2-dihydropyridin-3-yl)-N6-methyl-2-(3-methylbenzofuran-2-carboxamido)-5-oxohexanediamide]", "values": [{"measurement": "Kel", "setting": "[1]", "value": 1.0, "unit": "h⁻¹"}, {"measurement": "CL/F", "setting": "[1]; mouse, plasma", "value": 277, "unit": "mL/min/kg"}, {"measurement": "MRT", "setting": "[1]; mouse, plasma", "value": 60, "unit": "min"}, {"measurement": "half-life", "setting": "[1]; mouse, plasma", "value": 42, "unit": "min"}, {"measurement": "AUC(0-t)", "setting": "[1]; mouse, plasma", "value": 12000, "unit": "ng·h/mL"}, {"measurement": "Cmax", "setting": "[1]; mouse, plasma, read-out: Cmax", "value": 21.6, "unit": "µM"}, {"measurement": "Cmax", "setting": "[1]; mouse, plasma, read-out: Cmax [ng/ml]", "value": 13600, "unit": "ng/mL"}, {"measurement": "logD", "setting": "[2]", "value": "1 to 3"}]}
